Reference: patent US20140221469A1, “PHYTOCANNABINOIDS FOR USE IN THE TREATMENT OF CANCER” (Otsuka Pharmaceutical Co., Ltd., priority 2011, published 2014)
Where two headings read alike, the source gives them in different places.

Assays:
U87 human glioma cells = assay: MTT colorimetric cell viability assay, U87; format: cell-based; conditions: for Effect on tumour cell viability (MTT test), alone / Effect of CB1 antagonist on inhibition of cell proliferation / Effect of CB2 antagonist on inhibition of cell proliferation / Effect of TRPV1 vanilloid antagonist on inhibition of cell proliferation: U87; for IC50: Homo sapiens, U-87 MG, 24 h, read-out: IC50, drop of mitochondrial oxidative metabolism (MTT test); for Effect of CB1 antagonist on inhibition of cell proliferation: AM 251 (0.5 μM) added; for Effect of CB2 antagonist on inhibition of cell proliferation: SR 144528 (0.5 μM) for CBG, AM630 (0.5 μM) for CBDV; for Effect of TRPV1 vanilloid antagonist on inhibition of cell proliferation: capsazepine (0.625 μM) added
Experimental: The human glioma cell line U87-MG was obtained from the American Type Culture Collection (Rockville, USA). Cells were maintained in DMEM supplemented with 10% heat-inactivated foetal bovine serum (Euroclone, Italy), 1% glutamine, 1% antibiotic mixture, 1% sodium pyruvate, 1% non-essential amino acids, at 37° C. in a humidified 5% CO2 atmosphere. Cells were seeded in complete medium. After a 24 h incubation, the medium was replaced by serum-free medium (ITSS medium), consisting of DMEM supplemented with 5 μg/ml insulin, 5 μg/ml transferrin, and 5 […].
(§1) To determine the effects of the phytocannabinoids upon cell viability, the applicants employed a MTT colorimetric assay ([3-(4,5-dimethyl-2-thiazolyl)-2,5-diphenyl-2H tetrazolium bromide]; Sigma-Aldrich). Briefly, U87 human glioma cells were seeded in a 96-well flat bottom multi-well at a density of 8000 cells/well. After 24 h, cells were treated with THCV, CBDV and CBG and/or receptor antagonists at the indicated concentrations. At the end of the incubation with the drugs, MTT (0.5 mg/ml final concentration) was added to each well and the incubation was then continued for 4 h. The insoluble formazan crystals were solubilized by the addition of 100 μl of 100% dimethyl sulfoxide. The plates were read at 570 nm using an automatic microtiter plate reader.

U87 glioma cells = conditions: Boyden chamber; cited from earlier work
[1] = tested on: subcutaneously implanted U87 human glioma cells; conditions: nude mice, subcutaneous, 0.5 mg/mouse; cited from earlier work
U87 cells [2] = assay: Evaluation of apoptosis (propidium iodide flow cytometry), U87; format: cell-based, human; conditions: 24 h
Experimental: 3.4×10^5 tumour cells were cultured in 6 well-plates in the presence or absence of CBDV or THCV for 24 h, as described above and the percentage of apoptotic cells on the total cell population (adhering/detached cells) was evaluated. Briefly, cells were collected, washed, and centrifuged at 1300 rpm. They were then fixed in ethanol 70% for at least 30 min at −20° C. After centrifugation, the cell pellet was gently re-suspended in 1 ml of PBS solution containing propidium iodide (PI, 50 μg/ml) and RNAse (20 μg/ml). Cells were analyzed after a minimum of 30 min of incubation in the dark at room temperature, and apoptosis was detected in individual cells using a flow cytometer (equipped with a single 488-nm argon laser; BD Biosciences, San Jose, Calif.) by reduced fluorescence of PI in apoptotic nuclei.

T98G cell = assay: Trypan Blue test, T98G; format: cell-based, human
Experimental: To further confirm the ability of CBDV, CBG and THCV to inhibit T98G cell growth, a Trypan Blue test was also conducted.

T98G glioma cells [3] = assay: Matrigel invasion assay, T98G; format: cell-based, human
Experimental: (§2) BD BioCoat matrigel invasion chambers (BD, USA) were used to examine the ability of U87 cells to penetrate the extracellular matrix. U87 cells (2.5×10^4 cells) were re-suspended in 500 μl of serum-free medium in the presence of the phytocannabinoids, and added to the upper chamber. The lower chamber was filled with 0.75 ml of complete medium as chemo-attractant. Cells were then incubated for 22 h at 37° C. After removal of cells on the upper surface of the membrane, cells on the lower surface were fixed in 100% methanol and stained with Diff-Quick stain (Medion Diagnostics, USA). Sixteen fields of cells were counted randomly in each well under a light microscope at 200× magnification. Data was expressed as the percentage of invasive cells as compared with the control. All the experiments were performed in triplicates and results were expressed as mean±SEM of three independent experiments.
(§3) In a further set of experiments, Examples 8-10 the compounds were evaluated on a different cell line, T98G, which was obtained from the American Type Culture Collection (Rockville, USA). The protocols employed were as described above.
The matrigel invasion assay was carried out to further examine the effect of the CBDV on the invasiveness of T98G glioma cells.

T98G glioma cells [4] = assay: Cell migration (Boyden chamber), T98G; format: cell-based, human; conditions: for Inhibition of migration of the cells: irrespective of the concentration used
Experimental: (§4) BD BioCoat Control Inserts (BD, USA) were used to examine the ability of U87-MG cells to migrate through an 8.0 micron pore size PET membrane. U87-MG cells (2.5×10^4 cells) were re-suspended in 500 μl of serum-free medium in presence of phytocannabinoids, and added to the upper chamber. The lower chamber was filled with 0.75 ml of complete medium as chemo-attractant. Cells were then incubated for 22 h at 37° C. After removal of cells on the upper surface of the membrane, cells on the lower surface were fixed in 100% methanol and stained with Diff-Quick stain (Medion Diagnostics, USA). Sixteen fields of cells were counted randomly in each well under a light microscope at 200× magnification. Data was expressed as the percentage of migrating cells as compared with the control. All the experiments were performed in triplicates and results were expressed as mean±SEM of three independent experiments.
as §3
The effect of CBDV on T98G glioma cells invasion and motility was determined by Boyden chamber assay.

T98G cell line = assay: MTT test, T98G; format: cell-based, human; conditions: for Effect of pre-treatment with CB1 antagonist on anti-proliferative effect: AM251; for Effect of pre-treatment with CB2 antagonist on anti-proliferative effect: AM630
Experimental: as §1, §3

U87 cells [5] = assay: Matrigel cell invasion assay, U87; format: cell-based, human
Experimental: as §2
The matrigel invasion assay was carried out to further examine the effect of THCV on the invasiveness on U87 glioma cells.

U87-MG cells = assay: Cell motility assay (Boyden chamber), U87-MG; format: cell-based, human
Experimental: as §4
The effect of THCV on U87 glioma cells invasion and motility was determined by Boyden chamber assay. […] The effect was even evident at concentrations as low as 0.25 μM.

[6] = tested on: human breast cell line MDA MB 231; assay: Migration in breast cell line MDA-MB 231; format: cell-based; conditions: MDA-MB 231 breast cell line
[7] = tested on: recurrent glioblastoma multiforme; conditions: nine patients, intra-tumoural; 95% confidence interval: 15-33; cited from earlier work
[8] = Homo sapiens, 24 h, read-out: IC50, drop of mitochondrial oxidative metabolism (MTT test)

## C=C(C)[C@@H]1CCC(C)=C[C@H]1c1c(O)cc(CCCCC)cc1O [CBD, Cannabidiol, reference compound]
U87 human glioma cells; 5 μM
  Effect on tumour cell viability (MTT test), alone: ineffective
U87 human glioma cells; 9 μM
  Effect on tumour cell viability (MTT test), alone: effective
U87 glioma cells
  Migration of U87 glioma cells: concentration-dependent inhibition
[1]
  Growth of subcutaneously implanted U87 human glioma cells: significantly inhibited the growth
U87 cells [2]; 5 μM
  Apoptosis, alone: did not cause any apoptosis
U87 cells [2]; 9 μM
  Apoptosis, alone: significant induction of apoptosis

## C=C(C)[C@@H]1CCC(C)=C[C@H]1c1c(O)cc(CCC)cc1O [CBDV, Cannabidivarin]
T98G cell
  Cell viability, Trypan Blue test: inhibited cells viability in the same dose range as for MTT test
T98G glioma cells [3]; concentration range from 0.5 to 12 μM
  Inhibition of cell invasiveness: about 70%
U87 human glioma cells
  IC50: 24.2 µM
  Effect of CB1 antagonist on inhibition of cell proliferation: able to significantly increase the inhibitory action of CBDV on glioma cell growth at 19, 40, and 50 μM concentrations
  Effect of CB2 antagonist on inhibition of cell proliferation: able to significantly increase the inhibitory action of CBDV on glioma cell growth at 19, 40, and 50 μM concentrations
  Effect of TRPV1 vanilloid antagonist on inhibition of cell proliferation: a significant increase of the inhibitory action of CBDV was seen only at 14 and 19 μM
T98G glioma cells [4]
  Concentration as low as which the anti-migratory effect was evident: 0.5 µM
  Inhibition of migration of the cells: 55%
T98G cell line; 24 h after cannabinoid exposure
  IC50: 27 µM
T98G cell line
  Effect of pre-treatment with CB1 antagonist on anti-proliferative effect: exhibited some sensitivity
  Effect of pre-treatment with CB2 antagonist on anti-proliferative effect: exhibited some sensitivity
T98G cell line; Homo sapiens, 24 h, read-out: IC50, drop of mitochondrial oxidative metabolism (MTT test), T98G, 24 h after cannabinoid exposure
  IC50: 27.1 µM
U87 cells [5]; U87
  Concentration as low as which the anti-invasive effect was evident: 1 µM
U87 cells [5]; U87, across the concentrations tested
  Decrease of the number of invading cells, average effect: 45%
U87-MG cells
  Concentration as low as which the anti-migratory effect was evident: 1 µM
  Effect on cell migration: significantly inhibited the migration

## CCCCCc1cc(O)c(C/C=C(\C)CCC=C(C)C)c(O)c1 [CBG, Cannabigerol]
T98G cell
  Cell viability, Trypan Blue test: inhibited cells viability in the same dose range as for MTT test
T98G glioma cells [3]
  Effect on cell invasion: did not inhibit
U87 human glioma cells
  IC50: 12.1 µM
  Effect of CB1 antagonist on inhibition of cell proliferation: able to antagonize the inhibitory action of the phytocannabinoid on glioma cells growth only at 19 and 25 μM concentrations
  Effect of CB2 antagonist on inhibition of cell proliferation: failed to antagonize the anti-proliferative effect
  Effect of TRPV1 vanilloid antagonist on inhibition of cell proliferation: failed to antagonize the anti-proliferative effect
T98G glioma cells [4]
  Effect on cell migration: did not inhibit
T98G cell line
  Effect of pre-treatment with CB1 antagonist on anti-proliferative effect: unaffected
  Effect of pre-treatment with CB2 antagonist on anti-proliferative effect: unaffected
T98G cell line; [8]
  IC50: 17.3 µM
U87 cells [5]; U87
  Effect on cell invasion: did not inhibit
U87-MG cells
  Effect on cell migration: did not inhibit

## C=C(C)[C@@H]1CCC(C)=C[C@H]1c1c(O)cc(CCCCC)c(C(=O)O)c1O [CBDA, Cannabidiolic acid]
[6]
  Effect on migration: inhibit migration in a statistically significant manner

## CCCCCc1cc2c(c(O)c1C(=O)O)[C@@H]1C=C(C)CC[C@H]1C(C)(C)O2 [THCA, Tetrahydrocannabinolic acid]
[6]
  Effect on migration: inhibit migration in a statistically significant manner

## CCCCCc1cc(O)c2c(c1)OC(C)(C)[C@@H]1CCC(C)=C[C@@H]21 [THC, Tetrahydrocannabinol]
[7]
  Median survival from the beginning of cannabinoid administration: 24 weeks

## CCCc1cc(O)c2c(c1)OC(C)(C)[C@@H]1CCC(C)=C[C@@H]21 [THCV, Tetrahydrocannabivarin]
T98G cell
  Cell viability, Trypan Blue test: inhibited cells viability in the same dose range as for MTT test
T98G glioma cells [3]
  Effect on cell invasion: U-shaped dose-response curve
U87 human glioma cells
  IC50: 13.8 µM
  Effect of CB1 antagonist on inhibition of cell proliferation: none of the antagonists was effective in reversing and/or potentiating the effect
  Effect of CB2 antagonist on inhibition of cell proliferation: none of the antagonists was effective in reversing and/or potentiating the effect
  Effect of TRPV1 vanilloid antagonist on inhibition of cell proliferation: none of the antagonists was effective in reversing and/or potentiating the effect
U87 human glioma cells; 5 μM
  Effect on tumour cell viability (MTT test), alone: ineffective
U87 human glioma cells; 10 μM
  Effect on tumour cell viability (MTT test), alone: effective
T98G glioma cells [4]
  Inhibition of migration of the cells: about 50%
T98G cell line
  Effect of pre-treatment with CB1 antagonist on anti-proliferative effect: unaffected
  Effect of pre-treatment with CB2 antagonist on anti-proliferative effect: unaffected
T98G cell line; [8]
  IC50: 16.1 µM
U87 cells [5]; Homo sapiens, U-87 MG, read-out: Inhibition of cell invasiveness
  inhibition at 5 µM: 55%
U87 cells [5]; U87, 0.5 and 1 μM
  Inhibition of cell invasiveness: about 35%
U87-MG cells
  Concentration as low as which the anti-migratory effect was evident: 0.25 µM
U87-MG cells; irrespectively of the concentrations used, 22 h
  Inhibition of migration of the cells: 55%
U87 cells [2]; 5 μM
  Apoptosis, alone: did not cause any apoptosis
U87 cells [2]; 10 μM
  Apoptosis, alone: did not cause any apoptosis
